The source made the active and inactive calls. No rule for the calls is given here.

What all share (type): functional
In experiment [1] the target is Cyclin-dependent kinase 1 (Homo sapiens, UniProt P06493).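 Also: Kinome-wide panel profiling, with the target listed as panel member CDC2.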
Experiment [2] has as its target Serine/threonine-protein kinase PLK1 (Homo sapiens, UniProt P53350).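 Also: PLK1 measured as one member of a kinome-wide profiling panel.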
Experiment [3] addresses Dual specificity tyrosine-phosphorylation-regulated kinase 3 (Homo sapiens, UniProt O43781).

Cyclin-dependent kinase 1, sequence (P06493 whole entry): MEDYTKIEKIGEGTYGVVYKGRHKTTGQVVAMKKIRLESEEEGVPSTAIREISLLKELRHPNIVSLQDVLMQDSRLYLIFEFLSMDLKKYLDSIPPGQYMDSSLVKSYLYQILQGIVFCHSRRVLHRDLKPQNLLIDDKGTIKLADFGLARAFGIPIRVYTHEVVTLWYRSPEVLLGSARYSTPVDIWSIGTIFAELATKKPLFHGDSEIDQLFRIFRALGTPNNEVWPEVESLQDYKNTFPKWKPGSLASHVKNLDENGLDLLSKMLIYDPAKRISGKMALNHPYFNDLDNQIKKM
Serine/threonine-protein kinase PLK1, sequence (P53350 whole entry): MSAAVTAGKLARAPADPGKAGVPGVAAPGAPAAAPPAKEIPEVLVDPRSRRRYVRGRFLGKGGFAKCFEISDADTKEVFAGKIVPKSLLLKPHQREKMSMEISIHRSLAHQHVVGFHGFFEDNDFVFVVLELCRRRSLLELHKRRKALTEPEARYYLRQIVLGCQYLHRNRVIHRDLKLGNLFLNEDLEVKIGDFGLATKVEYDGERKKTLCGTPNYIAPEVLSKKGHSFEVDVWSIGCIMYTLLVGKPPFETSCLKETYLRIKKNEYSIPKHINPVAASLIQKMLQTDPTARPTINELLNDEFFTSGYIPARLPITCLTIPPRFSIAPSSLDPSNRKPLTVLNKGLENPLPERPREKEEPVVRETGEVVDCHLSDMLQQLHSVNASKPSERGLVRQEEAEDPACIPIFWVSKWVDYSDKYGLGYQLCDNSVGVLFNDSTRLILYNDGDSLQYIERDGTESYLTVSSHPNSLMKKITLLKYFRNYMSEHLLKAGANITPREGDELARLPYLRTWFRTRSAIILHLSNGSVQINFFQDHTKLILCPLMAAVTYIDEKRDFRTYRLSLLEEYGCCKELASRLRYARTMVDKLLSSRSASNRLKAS
Dual specificity tyrosine-phosphorylation-regulated kinase 3, sequence (O43781 whole entry): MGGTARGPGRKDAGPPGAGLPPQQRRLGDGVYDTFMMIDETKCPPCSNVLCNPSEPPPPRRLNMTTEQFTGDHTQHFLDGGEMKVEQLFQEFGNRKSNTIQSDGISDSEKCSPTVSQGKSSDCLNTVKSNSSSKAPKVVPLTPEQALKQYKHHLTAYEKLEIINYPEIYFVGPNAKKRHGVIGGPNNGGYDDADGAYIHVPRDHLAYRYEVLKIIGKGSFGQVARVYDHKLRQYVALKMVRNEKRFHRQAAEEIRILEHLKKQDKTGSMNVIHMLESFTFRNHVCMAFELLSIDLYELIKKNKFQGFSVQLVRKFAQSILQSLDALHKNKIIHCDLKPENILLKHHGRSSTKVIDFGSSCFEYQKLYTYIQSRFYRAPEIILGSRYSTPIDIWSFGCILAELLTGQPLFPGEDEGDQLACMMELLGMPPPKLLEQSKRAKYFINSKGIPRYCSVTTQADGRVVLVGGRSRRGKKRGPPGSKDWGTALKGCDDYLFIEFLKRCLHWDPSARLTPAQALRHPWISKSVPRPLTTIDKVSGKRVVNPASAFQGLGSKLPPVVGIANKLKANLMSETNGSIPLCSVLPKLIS

As to `OC1CCC(Nc2nc(Cl)cc(-c3c[nH]c4ncccc34)n2)CC1` (stereo unspecified), the Ki was 39.8 nM (active) in experiment [1], 251 nM (active) in experiment [2] and 5.01 nM (active) in experiment [3]. Besides, the values for the pKi in experiment [1], in experiment [2] and in experiment [3] were 7.4, 6.6 and 8.3, respectively.

By Ki is commonly meant the equilibrium dissociation constant of an inhibitor or competing ligand from its target. The pKi is the Ki on a negative log10 scale, so that one unit is a factor of ten. A higher pKi goes with a small Ki.

These data come from ChEMBL document CHEMBL1201862, “PubChem BioAssay data set” (2004).
